In patent US20220323406A1, “METHODS AND COMPOSITIONS FOR DIFFERENTIATING STEM CELLS” (Massachusetts Institute of Technology, priority 2019, published 2022):
Where a name gives a salt, the structure may show the parent alone.

Experiments:
[1] = tested on: ENR+CD organoids (ISC to Paneth cell differentiation); test: Primary screen: CCh-stimulated lysozyme secretion LYZ.S, 2.5-D 384-well ENR+CD organoid differentiation; type: cell-based, mouse; details: primary screen
From the text: (§1) High-throughput screening.

ENR+CD organoids = test: Primary screen: ATP (CellTiter-Glo 3D, CTG) cell number/viability, 2.5-D 384-well ENR+CD organoids; details: primary screen; for Z.CTG: standard z score;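 for all read-outs here: compounds given at plating and again on day 3 over a 6-day differentiation from ENR+CV stem-cell-enriched precursors, ATP measured on day 6, plate median as control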
[2] = tested on: ENR+CD organoids (ISC to Paneth cell differentiation); test: Primary screen: basal (non-stimulated) lysozyme secretion LYZ.NS, 2.5-D 384-well ENR+CD organoid differentiation; type: cell-based, mouse
From the text: as §1

[3] = dose 0.08 uM, FC relative to plate median
[4] = dose 0.40 uM, FC relative to plate median
[5] = dose 2.00 uM, FC relative to plate median
[6] = dose 10.00 uM, FC relative to plate median
[7] = primary screen, dose 0.08 uM, FC relative to plate median
[8] = primary screen, dose 0.08 uM, standard z score
[9] = primary screen, dose 0.40 uM, FC relative to plate median
[10] = primary screen, dose 0.40 uM, standard z score
[11] = primary screen, dose 2.00 uM, FC relative to plate median
[12] = primary screen, dose 2.00 uM, standard z score
[13] = primary screen, dose 10.00 uM, FC relative to plate median
[14] = primary screen, dose 10.00 uM, standard z score

Molecule | Dose.FC.LYZ.S [1, 3] [log2 fold change] | Dose.FC.LYZ.S [1, 4] [log2 fold change] | Dose.FC.LYZ.S [1, 5] [log2 fold change] | Dose.FC.LYZ.S [1, 6] [log2 fold change] | Dose.FC.CTG (ENR+CD organoids; [3]) [log2 fold change] | Dose.FC.CTG (ENR+CD organoids; [4]) [log2 fold change] | Dose.FC.CTG (ENR+CD organoids; [5]) [log2 fold change] | Dose.FC.CTG (ENR+CD organoids; [6]) [log2 fold change] | Dose.FC.LYZ.NS [2, 7] [log2 fold change] | Z.LYZ.NS [2, 8] | Dose.FC.LYZ.NS [2, 9] [log2 fold change] | Z.LYZ.NS [2, 10] | Dose.FC.LYZ.NS [2, 11] [log2 fold change] | Z.LYZ.NS [2, 12] | Dose.FC.LYZ.NS [2, 13] [log2 fold change] | Z.LYZ.NS [2, 14] | Z.CTG (ENR+CD organoids; dose 0.08 uM) | Z.CTG (ENR+CD organoids; dose 0.40 uM) | Z.CTG (ENR+CD organoids; dose 2.00 uM) | Z.CTG (ENR+CD organoids; dose 10.00 uM) | further results
COc1cc2nc(N3CCN(C(=O)C4COc5ccccc5O4)CC3)nc(N)c2cc1OC (centres unmarked) [Doxazosin Mesylate] |  |  |  |  |  |  |  |  |  |  |  |  |  |  |  |  |  |  |  |  | Dose.FC.LYZ.S ([1]; dose 0.08 uM): 0.093 log2 fold change; Dose.FC.LYZ.S ([1]; dose 0.40 uM): 0.084 log2 fold change; Dose.FC.LYZ.S ([1]; dose 2.00 uM): 0.030 log2 fold change; Dose.FC.LYZ.S ([1]; dose 10.00 uM): 0.015 log2 fold change; Dose.FC.CTG (ENR+CD organoids; dose 0.08 uM): 0.072 log2 fold change; Dose.FC.CTG (ENR+CD organoids; dose 0.40 uM): −0.015 log2 fold change; Dose.FC.CTG (ENR+CD organoids; dose 2.00 uM): 0.146 log2 fold change; Dose.FC.CTG (ENR+CD organoids; dose 10.00 uM): 0.075 log2 fold change; Dose.FC.LYZ.NS ([2]; primary screen, dose 0.08 uM): 0.073 log2 fold change; Dose.FC.LYZ.NS ([2]; primary screen, dose 0.40 uM): 0.044 log2 fold change; Dose.FC.LYZ.NS ([2]; primary screen, dose 2.00 uM): 0.047 log2 fold change; Dose.FC.LYZ.NS ([2]; primary screen, dose 10.00 uM): 0.039 log2 fold change; Z.LYZ.NS ([2]; primary screen, standard z score, dose 0.08 uM): 0.633; Z.LYZ.NS ([2]; primary screen, standard z score, dose 0.40 uM): 0.387; Z.LYZ.NS ([2]; primary screen, standard z score, dose 2.00 uM): 0.413; Z.LYZ.NS ([2]; primary screen, standard z score, dose 10.00 uM): 0.340
Ifenprodil Tartrate |  |  |  |  |  |  |  |  |  |  |  |  |  |  |  |  |  |  |  |  | Dose.FC.LYZ.S (log2 fold change) ([1]; dose 0.08 uM): 0.050; Dose.FC.LYZ.S (log2 fold change) ([1]; dose 0.40 uM): 0.017; Dose.FC.LYZ.S (log2 fold change) ([1]; dose 2.00 uM): −0.023; Dose.FC.LYZ.S (log2 fold change) ([1]; dose 10.00 uM): −0.301; Dose.FC.CTG (log2 fold change) (ENR+CD organoids; dose 0.08 uM): 0.102; Z.CTG (standard z score) (ENR+CD organoids; dose 0.08 uM): 0.243; Dose.FC.CTG (log2 fold change) (ENR+CD organoids; dose 0.40 uM): 0.111; Z.CTG (standard z score) (ENR+CD organoids; dose 0.40 uM): 0.265; Dose.FC.CTG (log2 fold change) (ENR+CD organoids; dose 2.00 uM): −0.003; Z.CTG (standard z score) (ENR+CD organoids; dose 2.00 uM): −0.008; Dose.FC.CTG (log2 fold change) (ENR+CD organoids; dose 10.00 uM): −1.034; Z.CTG (standard z score) (ENR+CD organoids; dose 10.00 uM): −2.471; Dose.FC.LYZ.NS (log2 fold change) ([2]; primary screen, dose 0.08 uM): 0.056; Z.LYZ.NS (standard z score) ([2]; primary screen, dose 0.08 uM): 0.492; Dose.FC.LYZ.NS (log2 fold change) ([2]; primary screen, dose 0.40 uM): −0.019; Z.LYZ.NS (standard z score) ([2]; primary screen, dose 0.40 uM): −0.161; Dose.FC.LYZ.NS (log2 fold change) ([2]; primary screen, dose 2.00 uM): 0.123; Z.LYZ.NS (standard z score) ([2]; primary screen, dose 2.00 uM): 1.068; Dose.FC.LYZ.NS (log2 fold change) ([2]; primary screen, dose 10.00 uM): −0.219; Z.LYZ.NS (standard z score) ([2]; primary screen, dose 10.00 uM): −1.909
CN1CC(=O)N2[C@H](c3ccc4c(c3)OCO4)c3[nH]c4ccccc4c3C[C@@H]2C1=O [Tadalafil] | 0.091 | 0.095 | 0.223 | 0.148 | −0.019 | 0.361 | 0.436 | 0.270 | 0.102 | 0.887 | 0.027 | 0.233 | 0.130 | 1.128 | 0.061 | 0.534 |  |  |  |  | 
Cc1cc(NC(=O)Nc2ccc(N(C)C)cc2)c2cc(F)cc(F)c2n1 [SB408124] | 0.198 | 0.193 | 0.082 | −0.148 | 0.410 | 0.334 | 0.364 | 0.091 | 0.172 | 1.494 | 0.134 | 1.168 | 0.084 | 0.730 | −0.070 | −0.607 | 0.978 | 0.799 | 0.869 | 0.216 | 
COc1cc(OC)c(/C=C/S(=O)(=O)Cc2ccc(OC)c(NCC(=O)O)c2)c(OC)c1 [Rigosertib (ON-01910)] | −0.309 | −0.355 | −0.340 | −0.330 | −0.905 | −1.285 | −1.668 | −0.847 | −0.242 | −2.105 | −0.210 | −1.831 | −0.265 | −2.306 | −0.242 | −2.107 | −2.162 | −3.069 | −3.984 | −2.022 | 
